Laboratory results as given in patent US20080051429A1, “USE OF 4-AMINO-PIPERIDINES FOR TREATING SLEEP DISORDERS” (priority 2006, published 2008).
Like-named read-outs stand apart in the source and are kept apart here. Blank lines part the entries; values can stand above or below the molecule they belong to.

Assays:
Test in all cases: R-SAT broad profiling
Format in all cases: cell-based
5HT1B = 5HT1B (Homo sapiens, UniProt P28222); set-up: expressed in transfected cells; host or cells: NIH3T3; settings: read-out: pEC50 or pIC50 (converted)
Chain of 5HT1B (P28222 whole entry, species assumed): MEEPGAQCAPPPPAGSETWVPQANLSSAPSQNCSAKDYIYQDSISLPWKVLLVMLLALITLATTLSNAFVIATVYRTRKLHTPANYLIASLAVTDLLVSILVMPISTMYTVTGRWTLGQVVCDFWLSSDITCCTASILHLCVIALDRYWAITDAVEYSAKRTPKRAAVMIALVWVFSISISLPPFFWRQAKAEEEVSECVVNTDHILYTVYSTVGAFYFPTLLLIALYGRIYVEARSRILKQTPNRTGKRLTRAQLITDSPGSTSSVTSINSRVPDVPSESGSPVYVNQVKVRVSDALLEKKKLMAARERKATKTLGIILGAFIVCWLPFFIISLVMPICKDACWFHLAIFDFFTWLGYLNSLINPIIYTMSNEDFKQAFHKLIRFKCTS
Protocol: (§1) The functional receptor assay, Receptor Selection and Amplification Technology (R-SAT), was used (with minor modifications from that previously described U.S. Pat. No. 5,707,798) to screen compounds for efficacy at the 5-HT2A receptor. Briefly, NIH3T3 cells were grown in 96 well tissue culture plates to 70-80% confluence. Cells were transfected for 12-16 hours with plasmid DNAs using superfect (Qiagen Inc.) as per manufacture's protocols. R-SAT's were generally performed with 50 ng/well of receptor and 20 ng/well of Beta-galactosidase plasmid DNA. All receptor and G-protein constructs used were in the pSI mammalian expression vector (Promega Inc) as described in U.S. Pat. No. 5,707,798. The 5HT2A receptor gene was amplified by nested PCR from brain cDNA using the oligodeoxynucleotides based on the published sequence (see Saltzman et. al. Biochem. Biophys. Res. Comm. 181:1469-78 (1991)). Large-scale transfections, cells were transfected for 12-16 hours, then trypsinized and frozen in DMSO. Frozen cells were later thawed, plated at 10,000-40,000 cells per well of a 96 well plate that contained drug. With both methods, cells were then grown in a humidified atmosphere with 5% ambient CO2 for five days. Media was then removed from the plates and marker gene activity was measured by the addition of the beta-galactosidase substrate ONPG (in PBS with 5% NP-40). The resulting colorimetric reaction was measured in a spectrophotometric plate reader (Titertek Inc.)at […]. All data were analyzed using the computer program XLFit (IDBSm). Efficacy is the percent maximal repression compared to repression by a control compound (ritanserin in the case of 5HT2A). pIC50 is the negative of the log(IC50), where IC50 is the calculated concentration in Molar that produces 50% maximal repression.
(§2) The R-SAT assay (described above in example 289) was used to investigate the selectivity of 4-(4-Fluoro-benzyl)-3-(4-isobutoxy-benzyl)-8-methyl-1-oxa-3,8-diaza-spiro[4.5]decan-2-one.

D2 = D2 (Homo sapiens, UniProt P14416); set-up: expressed in transfected cells; host or cells: NIH3T3; settings: read-out: pEC50 or pIC50 (converted)
Chain of D2 (P14416 whole entry): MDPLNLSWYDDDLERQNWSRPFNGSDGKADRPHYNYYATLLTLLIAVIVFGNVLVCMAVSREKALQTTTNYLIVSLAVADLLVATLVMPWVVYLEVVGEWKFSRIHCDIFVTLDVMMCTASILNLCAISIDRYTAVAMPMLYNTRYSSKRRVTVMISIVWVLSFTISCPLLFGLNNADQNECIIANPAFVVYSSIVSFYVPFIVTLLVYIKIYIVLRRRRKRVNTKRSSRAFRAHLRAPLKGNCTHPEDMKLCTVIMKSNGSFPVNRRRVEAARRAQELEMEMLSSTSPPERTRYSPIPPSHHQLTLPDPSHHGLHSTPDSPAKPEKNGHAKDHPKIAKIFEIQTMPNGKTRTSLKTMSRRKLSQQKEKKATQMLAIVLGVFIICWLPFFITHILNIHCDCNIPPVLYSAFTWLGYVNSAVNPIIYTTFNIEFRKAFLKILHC
Protocol: as §1, §2

5HT1D [1] = molecular target: T1, 5HT1D (Homo sapiens, UniProt P28221); set-up: expressed in transfected cells; host or cells: NIH3T3; settings: read-out: pEC50 or pIC50 (converted)
T1 sequence (P28221 whole entry, species assumed): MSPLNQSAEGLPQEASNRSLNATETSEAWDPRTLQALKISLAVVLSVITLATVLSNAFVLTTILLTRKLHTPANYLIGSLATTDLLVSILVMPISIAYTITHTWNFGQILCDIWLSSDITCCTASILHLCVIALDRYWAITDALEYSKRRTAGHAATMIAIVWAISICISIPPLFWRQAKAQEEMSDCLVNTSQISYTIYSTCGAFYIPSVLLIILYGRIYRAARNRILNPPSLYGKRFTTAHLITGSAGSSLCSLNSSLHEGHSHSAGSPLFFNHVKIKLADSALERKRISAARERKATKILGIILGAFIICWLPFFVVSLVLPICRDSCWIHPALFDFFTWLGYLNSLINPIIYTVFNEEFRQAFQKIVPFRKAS
Protocol: as §1, §2

5HT1E = 5HT1E (Homo sapiens, UniProt P28566); set-up: expressed in transfected cells; host or cells: NIH3T3; settings: read-out: pEC50 or pIC50 (converted)
Chain of 5HT1E (P28566 whole entry): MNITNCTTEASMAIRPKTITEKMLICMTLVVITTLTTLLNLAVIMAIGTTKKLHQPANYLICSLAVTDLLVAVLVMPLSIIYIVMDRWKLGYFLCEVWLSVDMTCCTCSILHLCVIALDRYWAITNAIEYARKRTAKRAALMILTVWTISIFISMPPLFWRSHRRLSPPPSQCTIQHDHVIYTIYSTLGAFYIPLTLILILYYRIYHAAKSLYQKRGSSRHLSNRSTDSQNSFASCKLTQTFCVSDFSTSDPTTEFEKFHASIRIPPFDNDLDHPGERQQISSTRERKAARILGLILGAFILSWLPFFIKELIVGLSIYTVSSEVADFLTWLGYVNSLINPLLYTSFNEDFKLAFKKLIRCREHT
Protocol: as §1, §2

H1 = H1 (Homo sapiens, UniProt P35367); set-up: expressed in transfected cells; host or cells: NIH3T3; settings: agonist; read-out: pEC50 or pIC50 (converted)
Chain of H1 (P35367 whole entry): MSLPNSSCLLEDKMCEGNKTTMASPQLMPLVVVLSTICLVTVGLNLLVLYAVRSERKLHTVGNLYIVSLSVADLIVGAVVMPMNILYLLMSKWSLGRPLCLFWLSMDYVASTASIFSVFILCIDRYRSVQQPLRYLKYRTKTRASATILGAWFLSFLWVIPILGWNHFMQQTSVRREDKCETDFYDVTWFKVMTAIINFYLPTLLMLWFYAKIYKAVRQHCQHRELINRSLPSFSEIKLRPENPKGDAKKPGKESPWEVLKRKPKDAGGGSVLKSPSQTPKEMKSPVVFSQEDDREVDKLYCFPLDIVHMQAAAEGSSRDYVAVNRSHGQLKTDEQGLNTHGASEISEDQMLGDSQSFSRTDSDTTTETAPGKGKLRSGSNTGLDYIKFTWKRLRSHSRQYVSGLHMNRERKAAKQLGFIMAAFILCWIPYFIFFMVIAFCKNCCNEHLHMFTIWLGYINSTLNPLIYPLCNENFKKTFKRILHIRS
Protocol: as §1, §2

5HT1F [2] = molecular target: T2, 5HT1F (Homo sapiens, UniProt P30939); set-up: expressed in transfected cells; host or cells: NIH3T3; settings: read-out: pEC50 or pIC50 (converted)
T2 sequence (P30939 1-366): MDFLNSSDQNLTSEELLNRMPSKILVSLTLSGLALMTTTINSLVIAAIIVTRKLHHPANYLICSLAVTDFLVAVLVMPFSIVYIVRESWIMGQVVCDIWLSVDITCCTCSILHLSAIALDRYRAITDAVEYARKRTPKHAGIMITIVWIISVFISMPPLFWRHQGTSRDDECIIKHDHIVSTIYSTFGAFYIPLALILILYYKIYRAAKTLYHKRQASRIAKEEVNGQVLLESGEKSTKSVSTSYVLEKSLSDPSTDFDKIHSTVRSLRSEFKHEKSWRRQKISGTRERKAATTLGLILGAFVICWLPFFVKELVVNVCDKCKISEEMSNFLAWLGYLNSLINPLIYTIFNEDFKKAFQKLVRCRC
Protocol: as §1, §2

5HT2B [3] = molecular target: T3, 5HT2B (Homo sapiens, UniProt P41595); set-up: expressed in transfected cells; host or cells: NIH3T3; settings: read-out: pEC50 or pIC50 (converted)
Protocol: as §1, §2
Target sequence in this assay (P41595 whole entry): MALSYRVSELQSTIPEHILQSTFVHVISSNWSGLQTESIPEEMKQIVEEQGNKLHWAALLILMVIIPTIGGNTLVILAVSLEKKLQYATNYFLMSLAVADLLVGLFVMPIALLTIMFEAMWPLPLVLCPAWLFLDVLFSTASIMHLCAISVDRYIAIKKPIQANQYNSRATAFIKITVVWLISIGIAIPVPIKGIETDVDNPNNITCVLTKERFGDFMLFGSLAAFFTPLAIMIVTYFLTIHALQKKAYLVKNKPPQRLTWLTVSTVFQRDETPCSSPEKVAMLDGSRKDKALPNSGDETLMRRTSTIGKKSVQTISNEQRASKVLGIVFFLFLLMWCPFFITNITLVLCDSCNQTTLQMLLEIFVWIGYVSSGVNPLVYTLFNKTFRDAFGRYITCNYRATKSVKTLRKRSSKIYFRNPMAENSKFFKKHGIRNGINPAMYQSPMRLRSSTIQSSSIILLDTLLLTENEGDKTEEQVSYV

5HT1D [4] = molecular target: T1, 5HT1D; set-up: expressed in transfected cells; settings: read-out: pEC50/pIC50 (converted)
Protocol: as §1
(§3) The R-SAT assay (described above in example 136) was used to investigate the selectivity of 2-(4-Methoxyphenyl)-N-(4-methylbenzyl)-N-(1-methylpiperidin-4-yl)acetamide hydrochloride.

5HT1A = molecular target: T4, 5HT1A (Homo sapiens, UniProt P08908); set-up: expressed in transfected cells; settings: read-out: pEC50/pIC50 (converted)
T4 sequence (P08908 1-422): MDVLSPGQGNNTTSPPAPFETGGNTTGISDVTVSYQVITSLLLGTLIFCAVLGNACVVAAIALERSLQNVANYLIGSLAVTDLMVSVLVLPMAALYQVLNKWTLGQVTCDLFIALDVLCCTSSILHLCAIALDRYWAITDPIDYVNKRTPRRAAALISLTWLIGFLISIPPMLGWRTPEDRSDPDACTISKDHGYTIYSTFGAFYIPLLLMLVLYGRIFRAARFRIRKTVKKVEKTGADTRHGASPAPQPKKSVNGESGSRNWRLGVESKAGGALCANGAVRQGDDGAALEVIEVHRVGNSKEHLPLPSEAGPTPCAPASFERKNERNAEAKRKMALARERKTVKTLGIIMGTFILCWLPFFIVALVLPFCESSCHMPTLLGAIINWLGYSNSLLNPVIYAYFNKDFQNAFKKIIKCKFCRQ
Protocol: as §1, §3

5HT1F [5] = molecular target: T2, 5HT1F; set-up: expressed in transfected cells; settings: read-out: pEC50/pIC50 (converted)
Protocol: as §1, §3

5HT2B [6] = molecular target: T3, 5HT2B; set-up: expressed in transfected cells; settings: read-out: pEC50/pIC50 (converted)
Protocol: as §1, §3
Target sequence in this assay (P41595 whole entry, species assumed): as the sequence (P41595 whole entry) above

Structure (SMILES): CC(C)COc1ccc(CN2C(=O)OC3(CCN(C)CC3)C2Cc2ccc(F)cc2)cc1.Cl (racemic) [Example 69NLS75, 4-(4-Fluorobenzyl)-3-(4-isobutoxybenzyl)-8-methyl-1-oxa-3,8-diazaspiro[4.5]decan-2-one, hydrochloride]
EC50 (5HT1B; agonist): > 3.16 µM | IC50 (5HT1B; antagonist): > 3.16 µM | EC50 (D2; agonist): > 3.16 µM | IC50 (D2; antagonist): > 3.16 µM | EC50 (5HT1D [1]; agonist): > 3.16 µM | IC50 (5HT1D [1]; antagonist): > 0.562 µM | EC50 (5HT1E; agonist): > 3.16 µM | IC50 (5HT1E; antagonist): > 0.631 µM | EC50 (H1): > 3.16 µM | EC50 (5HT1F [2]; agonist): > 3.16 µM | IC50 (5HT1F [2]; antagonist): > 3.16 µM | EC50 (5HT2B [3]; agonist): > 3.16 µM | IC50 (5HT2B [3]; antagonist): > 3.16 µM | IC50 (5HT2B [3]; inverse): > 2.51 µM

EC50 (5HT1D [4]; agonist): > 3.16 µM | IC50 (5HT1D [4]; antagonist): > 3.16 µM | EC50 (5HT1A; agonist): > 3.16 µM | IC50 (5HT1A; antagonist): > 3.16 µM | EC50 (5HT1F [5]; agonist): > 3.16 µM | IC50 (5HT1F [5]; antagonist): > 3.16 µM | EC50 (5HT2B [6]; agonist): > 3.16 µM | IC50 (5HT2B [6]; inverse agonist): 0.126 µM
Structure (SMILES): COc1ccc(CC(=O)N(Cc2ccc(C)cc2)C2CCN(C)CC2)cc1 [Example 50ELH27, 2-(4-Methoxyphenyl)-N-(4-methylbenzyl)-N-(1-methylpiperidin-4-yl)acetamide]
